Measurements from patent US7109193B2, “Tricyclic diazepines tocolytic oxytocin receptor antagonists” (Wyeth, priority 2001, dated 2006).

Target: T1, human vasopressin V2 receptor subtype (Homo sapiens, UniProt P30518)
T1 construct: host or cells: CHO cells (pZeoSV vector)
Experiment: Vasopressin binding in Chinese Hamster Ovary cell membranes expressing human vasopressin V2 subtype receptors
Details: CHO cell membranes, [3H]arginine vasopressin; for IC50: values in parentheses; for inhibition at 0.1 µM: 100 nM, values without parentheses
How it was run: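 Radioligand displacement on membranes from CHO cells stably expressing human V2 receptor, 25 to 50 μg protein/well, in 50 mM Tris-HCl pH 7.4 with MgCl2, BSA and protease inhibitors. [^3H]arginine vasopressin (8 nM working solution) incubated 60 min at room temperature; bound label measured by filtration and scintillation counting.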

T1 sequence (P30518 whole entry): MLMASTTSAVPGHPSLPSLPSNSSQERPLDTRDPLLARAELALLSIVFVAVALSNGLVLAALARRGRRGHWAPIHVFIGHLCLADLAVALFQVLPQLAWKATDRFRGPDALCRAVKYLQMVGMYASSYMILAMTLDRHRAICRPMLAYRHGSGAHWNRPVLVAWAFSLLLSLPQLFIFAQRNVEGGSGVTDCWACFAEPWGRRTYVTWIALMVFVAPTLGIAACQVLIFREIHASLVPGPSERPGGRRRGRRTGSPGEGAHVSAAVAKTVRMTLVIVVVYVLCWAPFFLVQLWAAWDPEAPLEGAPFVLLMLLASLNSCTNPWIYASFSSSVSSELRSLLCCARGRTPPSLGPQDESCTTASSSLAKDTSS

Row | Structure (SMILES) | IC50 [nM] | inhibition at 0.1 µM [%]
1 | COc1ccccc1-c1ccc(C(=O)N2Cc3ccc(C(=O)N4CCCN(C)CC4)n3Cc3ccccc32)cc1 [Example 61, {10-[(2′-Methoxy[1,1′-biphenyl]-4-yl)carbonyl]-10,11-dihydro-5H-pyrrolo[2,1-c][1,4]benzodiazepin-3-yl}(4-methyl-1,4-diazepan-1-yl)methanone] | 745 | –
2 | Cc1cc(C(=O)N2Cc3ccc(C(=O)N(C)CCCN(C)C)n3Cc3ccccc32)ccc1-c1ccccc1C(F)(F)F [Example 97, N-[3-(Dimethylamino)propyl]-N-methyl-10-{[2-methyl-2′-(trifluoromethyl)[1,1′-biphenyl]-4-yl]carbonyl}-10,11-dihydro-5H-pyrrolo[2,1-c][1,4]benzodiazepine-3-carboxamide] | 2000 | –
3 | COc1cc(-c2ccccc2C(F)(F)F)c(OC)cc1C(=O)N1Cc2cccn2Cc2ccccc21 [Example 32, 10-{[3,6-Dimethoxy-2′-trifluoromethyl-[1,1′-biphenyl]-4-yl]carbonyl}-10,11-dihydro-5H-pyrrolo[2,1-c][1,4]benzodiazepine] | 605 | –
4 | COc1cc(C(=O)N2Cc3ccc(C(=O)N(C)CCN(C)C)n3Cc3ccccc32)ccc1-c1ccccc1C [Example 92, N-[2-(Dimethylamino)ethyl]-10-[(2-methoxy-2′-methyl[1,1′-biphenyl]-4-yl)carbonyl]-N-methyl-10,11-dihydro-5H-pyrrolo[2,1-c][1,4]benzodiazepine-3-carboxamide] | – | 20
5 | COc1cccc(-c2cc(OC)c(C(=O)N3Cc4ccc(C(=O)N(C)CCN(C)C)n4Cc4ccccc43)cc2Cl)c1 [Example 87, 10-[(6-Chloro-3,3′-dimethoxy[1,1′-biphenyl]-4-yl)carbonyl]-N-[2-(dimethylamino)ethyl]-N-methyl-10,11-dihydro-5H-pyrrolo[2,1-c][1,4]benzodiazepine-3-carboxamide] | 2180 | –
6 | O=C(c1ccc(-c2cccc3ccccc23)nc1)N1Cc2cccn2Cc2ccccc21 [Example 28, [6-(Naphthalen-1-yl)-pyridin-3-yl]-[10,11-dihydro-5H-pyrrolo[2,1-c][1,4]benzodiazepin-10-yl]methanone] | 58.8 | –
7 | COc1cc(-c2ccccc2C)c(Cl)cc1C(=O)N1Cc2ccc(C(=O)N3CCC(N4CCCC4)CC3)n2Cc2ccccc21 [Example 136, {10-[(6-Chloro-3-methoxy-2′-methyl[1,1′-biphenyl]-4-yl)carbonyl]-10,11-dihydro-5H-pyrrolo[2,1-c][1,4]benzodiazepin-3-yl}[4-(1-pyrrolidinyl)-1-piperidinyl]methanone] | 597 | –
8 | COc1cccc(-c2ccc(C(=O)N3Cc4ccc(C(=O)N(C)CCN(C)C)n4Cc4ccccc43)cc2OC)c1 [Example 95, 10-[(2,3′-Dimethoxy[1,1′-biphenyl]-4-yl)carbonyl]-N-[2-(dimethylamino)ethyl]-N-methyl-10,11-dihydro-5H-pyrrolo[2,1-c][1,4]benzodiazepine-3-carboxamide] | – | 13
9 | COc1cc(-c2ccccc2C)c(Cl)cc1C(=O)N1Cc2ccc(C(=O)N3CCN(CCN(C)C)CC3)n2Cc2ccccc21 [Example 197, {10-[(6-Chloro-3-methoxy-2′-methyl[1,1′-biphenyl]-4-yl)carbonyl]-10,11-dihydro-5H-pyrrolo[2,1-c][1,4]benzodiazepin-3-yl}{4-[2-(dimethylamino)ethyl]-1-piperazinyl}methanone] | 497 | –
10 | COc1ccccc1-c1ccc(C(=O)N2Cc3ccc(C(=O)N4CC[C@@H](N(C)C)C4)n3Cc3ccccc32)cc1C [Example 272, [(3R)-3-(Dimethylamino)pyrrolidinyl]{10-[(2′-methoxy-2-methyl[1,1′-biphenyl]-4-yl)carbonyl]-10,11-dihydro-5H-pyrrolo[2,1-c][1,4]benzodiazepin-3-yl}methanone] | 1300 | –
11 | COc1ccccc1-c1ccc(C(=O)N2Cc3ccc(C(=O)N(C)CCCN(C)C)n3Cc3ccccc32)cc1C [Example 100, N-[3-(Dimethylamino)propyl]-10-[(2′-methoxy-2-methyl[1,1′-biphenyl]-4-yl)carbonyl]-N-methyl-10,11-dihydro-5H-pyrrolo[2,1-c][1,4]benzodiazepine-3-carboxamide] | – | 26
